According to ChEMBL document CHEMBL6109109, “Fatty acid binding protein 5 inhibitors as novel anticancer agents against metastatic castration-resistant prostate cancer” (Bioorg Med Chem, 2025):
pIC50, pKi: −log10 of the molar value.

Tests used:
[1] = Cytotoxicity against mouse RCap cells assessed as reduction in cell viability measured after 72 hrs by MTT assay; type: functional, cell-based
[2] = Binding affinity to FABP5 (unknown origin); design: species or system Homo sapiens
PC-3 = assay: Cytotoxicity against human PC-3 cells assessed as reduction in cell viability measured after 72 hrs by MTT assay; type: functional, cell-based; details: PC-3, 72 h
[3] = Cytotoxicity against human WI-38 cells assessed as reduction in cell viability measured after 72 hrs by MTT assay; type: toxicity, cell-based

SMILES	pIC50 [1]	pKi [2]	pIC50 (PC-3)	IC50 at 72 h [3] [µM]
COc1ccccc1[C@H]1[C@H](C(=O)O)[C@H](c2ccccc2OC)[C@H]1C(=O)Oc1cccc(-c2cccc3c2OCO3)c1	4.71	6.39	4.91	35.1
N#CCc1ccc(-c2ccccc2)cc1OC(=O)[C@H]1[C@@H](c2ccccc2)[C@@H](C(=O)O)[C@@H]1c1ccccc1	4.52	5.63	4.91	55.2
COc1ccccc1[C@H]1[C@H](C(=O)O)[C@H](c2ccccc2OC)[C@H]1C(=O)OCC1(F)c2ccccc2-c2ccccc21	4.89	5.74	4.93	55.6
COc1ccccc1[C@H]1[C@H](C(=O)O)[C@H](c2ccccc2OC)[C@H]1C(=O)Oc1cc(-c2ccc3c(c2)OCO3)ccc1Br	5.07	6.46	4.98	15.6
COc1ccccc1[C@H]1[C@H](C(=O)O)[C@H](c2ccccc2OC)[C@H]1C(=O)Oc1cc(-c2ccc3c(c2)OCO3)ccc1CC#N	4.69	6.24	4.90	29.8
COc1ccccc1[C@H]1[C@H](C(=O)O)[C@H](c2ccccc2OC)[C@H]1C(=O)Oc1cccc(-c2ccc(F)cc2)c1	4.91	5.99	4.97	29.2
O=C(O)[C@H]1[C@H](c2ccccc2)[C@H](C(=O)Oc2cccc(-c3ccc4c(c3)OCCO4)c2)[C@H]1c1ccccc1	4.84	6.18	4.88	66.5
C#Cc1ccc(-c2ccc3c(c2)OCO3)cc1OC(=O)[C@H]1[C@@H](c2ccccc2OC)[C@H](C(=O)O)[C@@H]1c1ccccc1OC	4.83	5.92	4.94	72.1
COc1ccccc1[C@H]1[C@H](C(=O)O)[C@H](c2ccccc2OC)[C@H]1C(=O)Oc1cccc(-c2ccc(C#N)cc2)c1	4.72	5.76	5.09	26.1
Cn1cc(-c2ccc(-c3ccc4c(c3)OCO4)cc2OC(=O)[C@H]2[C@@H](c3ccccc3)[C@H](C(=O)O)[C@@H]2c2ccccc2)cn1	5.05	6.54	5.02	24.1
O=C(O)[C@H]1[C@H](c2ccccc2)[C@@H](C(=O)Oc2cc(-c3ccc4c(c3)OCO4)ccc2-c2ccccc2)[C@H]1c1ccccc1	5.26	5.93	5.01	22.4
O=C(O)[C@H]1[C@H](c2ccccc2)[C@H](C(=O)Oc2cc(-c3ccc4c(c3)OCCO4)cc3c2OCCO3)[C@H]1c1ccccc1	4.87	5.94	4.93	68.5
COc1ccccc1[C@H]1[C@H](C(=O)O)[C@H](c2ccccc2OC)[C@H]1C(=O)Oc1cc(-c2ccc3c(c2)OCO3)ccc1-c1cnn(C)c1	5.10	6.27	5.24	29.8
COc1ccccc1[C@H]1[C@H](C(=O)O)[C@H](c2ccccc2OC)[C@H]1C(=O)Oc1cc(-c2ccc(C#N)cc2)ccc1-c1ccccc1	4.84	6.21	5.32	> 100
Cn1cc(-c2ccc(-c3ccc4c(c3)OCO4)cc2OC(=O)[C@H]2[C@@H](c3ccccc3)[C@@H](C(=O)O)[C@@H]2c2ccccc2)cn1	5.21	6.12	4.99	26.4
COc1ccccc1[C@H]1[C@H](C(=O)O)[C@H](c2ccccc2OC)[C@@H]1C(=O)Oc1cccc(-c2ccc(F)cc2)c1	4.72	5.75	4.84	57.5
O=C(O)[C@@H]1[C@@H](c2ccccc2)[C@H](C(=O)OCc2cccc3ccccc23)[C@H]1c1ccccc1	4.62	5.29	4.88	27.1
N#CCc1ccc(-c2ccccc2)cc1OC(=O)[C@H]1[C@@H](c2ccccc2)[C@H](C(=O)O)[C@@H]1c1ccccc1	4.65	6.19	5.02	47.3
